The source of these data is patent publication US10401295B2, “Composition and method for monitoring lipid” (Memorial Sloan-Kettering Cancer Center, priority 2014, dated 2019).

In assay [1] the test system is HeLa cells. The experiment in a line: hyperspectral imaging of CNOR emission in live HeLa cells. It is filed as cell-based. Particulars: for effect on blue-shifting of CNOR emission: HeLa cells, relative to control. As for the experimental part: Cell Lines and Cell Culture Procedures: HeLa CCL-2 cells (ATCC, Manassas, Va., US) were grown under standard incubation conditions at 37° C. and 5% CO2 in sterile-filtered DMEM with 10% heat-inactivated FBS, 2.5% HEPES, 1% Glutamine, and 1% Penicillin/Streptomycin (all Gibco). For studies performed with homozygous mutant NPC, compound mutant heterozygote NPC, or wild-type fibroblasts, the cell lines GM18453, GM03123 or GM05659 (Coriell, Camden, N.J., US), respectively, were cultured in MEM with 10% FBS, 2.5% HEPES, and 1% Glutamine. Cells were plated on glass-bottom petri dishes, or lysine-covered glass dishes (MatTek) for fibroblasts. Unpurified SWCNT were incubated at 1 mg/L and separated SWCNT were incubated at 0.25 mg/L in media with cells for 30 minutes at 37° C. Depending on the experiment, cells were imaged immediately, or trypsinized (Gibco) and re-plated on a fresh glass-bottom petri dish followed by hyperspectral imaging. Pharmacological treatments on HeLa cells were performed with Nocodazole (Sigma, 10 μg/mL added after SWCNT incubation) or U18666A (Sigma, 3 μg/mL added 6 hours prior to SWCNT incubation). Fibroblast cells were incubated with hydroxypropyl-β-cyclodextrin (Sigma, 100 μM) 6 hours prior to SWCNT incubation. Cells were incubated for 30 minutes with 0.25 mg/L of the SWCNTs before rinsing and replacing with fresh media. Hyperspectral imaging was conducted immediately afterwards and 24 hours later. A DNA-encapsulated nanotube complex, undergoing a continuous solvatochromic shifting response, spatially and temporally tracked endosomal maturation in live HeLa cells. Separated (8,6) nanotubes encapsulated by an ss(GT)6 oligonucleotide, with a median length of 236 nm, were incubated with HeLa cells at 0.25 mg/L for 30 minutes before rinsing and replacing with fresh media. The wavelength distribution of the nanotube complex in endosomes, measured immediately after uptake, was centered at 1200.7±0.4 nm, near the bulk value observed in water. In lysosomes, after 6 hours post-incubation, the wavelength distribution broadened before blue-shifting to 1194.3±0.7 nm at the 24-hour timepoint (FIG. 2, panel A). A small red-shifted nanotube population, with a mean wavelength of 1205 nm, appeared at the 6-hour time point but disappeared by 24 hours. The relative mean wavelength of each emissive region of interest (ROI) was laid over a transmitted light image of the cells, resulting in spatial visualization of the spectral distribution (FIG. 2, panel B). […] The interaction of GT6-(8,6) nanotubes with RAW 264.7 macrophages was characterized, by incubating 2 pM of nanotubes in cell media for 30 minutes at 37° C. Under these conditions, the majority of cells efficiently took up nanotubes via energy-dependent mechanisms.

The test system of a further assay is RAW 264.7 macrophages. The experiment in a line: CNOR emission in RAW 264.7 macrophages (lysosomal lipid accumulation). It is filed as cell-based. Conditions: for blue shift compared with control macrophages: DMEM+10% FBS, U18666A, 10 uM Lalistat. As for the experimental part: A DNA-encapsulated nanotube complex, undergoing a continuous solvatochromic shifting response, spatially and temporally tracked endosomal maturation in live HeLa cells. Separated (8,6) nanotubes encapsulated by an ss(GT)6 oligonucleotide, with a median length of 236 nm, were incubated with HeLa cells at 0.25 mg/L for 30 minutes before rinsing and replacing with fresh media. The wavelength distribution of the nanotube complex in endosomes, measured immediately after uptake, was centered at 1200.7±0.4 nm, near the bulk value observed in water. In lysosomes, after 6 hours post-incubation, the wavelength distribution broadened before blue-shifting to 1194.3±0.7 nm at the 24-hour timepoint (FIG. 2, panel A). A small red-shifted nanotube population, with a mean wavelength of 1205 nm, appeared at the 6-hour time point but disappeared by 24 hours. The relative mean wavelength of each emissive region of interest (ROI) was laid over a transmitted light image of the cells, resulting in spatial visualization of the spectral distribution (FIG. 2, panel B). […] The interaction of GT6-(8,6) nanotubes with RAW 264.7 macrophages was characterized, by incubating 2 pM of nanotubes in cell media for 30 minutes at 37° C. Under these conditions, the majority of cells efficiently took up nanotubes via energy-dependent mechanisms.
RAW macrophages were incubated in lipoprotein depleted serum (LPDS) for 24 hours. Incubation in these conditions reduces the lipid content of the lysosomes and increases the number of surface receptors for acetylated LDL (Ac-LDL) on the cell surface. To induce lipid accumulation in the lysosomes, Ac-LDL and U18666A (a cholesterol transport inhibitor) were introduced to cells incubating in the lipoprotein depleted serum. […]
The reporter detected Wolman's disease, a lysosomal storage disorder characterized by the accumulation of esterified cholesterol in the lysosomes due to a non-functioning lysosomal acid lipase (LAL). […]

Assay [2] concerns HeLa cells. The experiment in a line: filipin staining of unesterified cholesterol in HeLa cells. It is filed as cell-based. Conditions: fixed HeLa cells, versus control.
Procedure: Filipin staining was conducted by fixing cells with 1.5% paraformaldehyde in PBS for 20 minutes. Cells were then labeled with 50 μg/mL filipin for 45 minutes. After washing, filipin images were acquired using 350/50 nm excitation and 460/50 mm emission filters with a 400 nm dichroic long-pass filter (Olympus).
The subject of assay [3] is NPC fibroblasts (homozygous mutation of the NPC1 gene). Put plainly: CNOR emission in homozygous NPC patient fibroblasts. Format: cell-based, human. The method, then:
(§1) Cell Lines and Cell Culture Procedures: HeLa CCL-2 cells (ATCC, Manassas, Va., US) were grown under standard incubation conditions at 37° C. and 5% CO2 in sterile-filtered DMEM with 10% heat-inactivated FBS, 2.5% HEPES, 1% Glutamine, and 1% Penicillin/Streptomycin (all Gibco). For studies performed with homozygous mutant NPC, compound mutant heterozygote NPC, or wild-type fibroblasts, the cell lines GM18453, GM03123 or GM05659 (Coriell, Camden, N.J., US), respectively, were cultured in MEM with 10% FBS, 2.5% HEPES, and 1% Glutamine. Cells were plated on glass-bottom petri dishes, or lysine-covered glass dishes (MatTek) for fibroblasts. Unpurified SWCNT were incubated at 1 mg/L and separated SWCNT were incubated at 0.25 mg/L in media with cells for 30 minutes at 37° C. Depending on the experiment, cells were imaged immediately, or trypsinized (Gibco) and re-plated on a fresh glass-bottom petri dish followed by hyperspectral imaging.
Pharmacological treatments on HeLa cells were performed with Nocodazole (Sigma, 10 μg/mL added after SWCNT incubation) or U18666A (Sigma, 3 μg/mL added 6 hours prior to SWCNT incubation). […]
Niemann Pick Type-C(NPC) is a lysosomal storage disorder characterized by massive accumulation of unesterified cholesterol in the lysosomes of patient fibroblasts. […]

Assay [4] concerns NPC1 fibroblasts (compound heterozygous mutations of the NPC1 gene). The experiment in a line: reporter emission in compound heterozygous NPC1 patient fibroblasts. It is filed as cell-based, human. As for the experimental part: as §1
In a similar procedure to the experiment with homozygous NPC cells, fibroblasts with the compound heterozygous mutation of the NPC1 gene were plated on a poly-d-lysine-coated glass-bottomed petri-dish and imaged at different time points after an initial 30 minute incubation with the SWCNTs. Histograms of the wavelength distribution profile of the SWCNTs were obtained. […]

Regarding `Cl.N` [NH4Cl], in the assay on HeLa cells [1] (50 mM added 6 hours after incubation with the CNOR), the “effect on CNOR emission populations” value was “blue-shifted population remained unaffected while the red-shifted population was depleted”.
For the compound `CCN(CC)CCO[C@H]1CC[C@@]2(C)C(=CC[C@@H]3[C@@H]2CC[C@]2(C)C(=O)CC[C@@H]32)C1` [U18666A], in the assay with HeLa cells [1] (3 μg/mL for six hours before incubation with the CNOR, at 24 hours), the “further increase in blue shift than in untreated control cells” value worked out at 3.8±0.7 nm. Besides, the “effect on blue-shifting of CNOR emission” value in the assay on HeLa cells [1] is “enhanced”. For the same compound, the “blue shift compared with control macrophages” value in the assay on RAW 264.7 macrophages was around 8 nm. The “CNOR blue-shift in drug-treated cells relative to drug-free control” value in the assay on RAW 264.7 macrophages (RAW 264.7 macrophages) was determined as 11.1±1.1 nm. In the assay on HeLa cells [2], the “intensity of filipin in the cell interior” value was “increased greatly”.
For the compound `COC(=O)Nc1nc2ccc(C(=O)c3cccs3)cc2[nH]1` [nocodazole], the “effect on blue-shifting of CNOR emission” value in the assay on HeLa cells [1] was “prevented the blue-shifting”. The “mean CNOR emission” value with HeLa cells [1] (nocodazole 10 μg/mL, up to 24 hours after internalization, control 1194.28±0.73) came out at 1200.07±1.4 nm.
Turning to Lalistat, the “blue shift compared with control macrophages” value with RAW 264.7 macrophages is listed as around 8 nm.
Consider hydroxypropyl-β-cyclodextrin [HPβCD], for which the “effect on CNOR blue-shift in NPC cells” value in assay [3] (HPβCD for additional 24 hours, after imaging at 24 hours) is on record as “reversal of the CNOR blue-shift”. The “effect of pre-treatment on CNOR fluorescence shifting in diseased cells” value in assay [3] (pre-treatment before CNOR incubation) was “prevented CNOR fluorescence from shifting”. Besides, the “red-shift of nanotube emission” value in assay [4] (100 uM for 24 hours, 24 hours after nanotube addition) is listed as “approximately 4 nm”. Further, in assay [4] (pre-treated 24 hours prior to nanotube addition), the “emission in pretreated NPC1 cells versus WT fibroblasts” value is recorded as “identical emission values”.
